# Results: patent US11396497B2, “Proteasome inhibitors” (New Mexico Tech University Research Park Corporation, priority 2018, dated 2022)
# Like-named read-outs stand apart in the source and are kept apart here.
# Key:
# MCF7 cells [1] = test: MTT assay cytotoxicity MCF7; conditions: read-out: Cytotoxicity MCF7 IC50
# [2] = molecular target: T1, chymotrypsin-like activity of the 26S proteasome (Homo sapiens, UniProt P28074); test: Proteasome assay, chymotrypsin-like (ChT-L) activity, Suc-LLVY-AMC, Jurkat cell lysate; format: biochemical; conditions: for IC50: ± S.D., read-out: Proteasome Inhibition ChT-like IC50
# T1 construct: endogenous in cells; host or cells: Jurkat (ATCC TIB-152, E6-1 clone) cell lysate
# T1 sequence (P28074 60-263): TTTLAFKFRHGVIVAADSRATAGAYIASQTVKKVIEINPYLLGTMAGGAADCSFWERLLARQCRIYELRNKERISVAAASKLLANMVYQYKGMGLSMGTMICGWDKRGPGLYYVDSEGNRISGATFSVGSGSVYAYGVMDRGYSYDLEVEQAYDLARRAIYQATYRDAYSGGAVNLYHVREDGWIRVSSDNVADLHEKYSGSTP
# Method: (§1) The lysate was stored at −80° C. until the sample was used for the proteasome assay.
# (§2) The compounds were diluted with lysis buffer; 10 μL of the compound-containing solution was added to the test wells at ten times the final concentration. […] The results are reported as the average of at least 3 technical replicates of IC50 values for proteasome inhibition.
# RPMI 8226 cells [3] = test: MTT assay cytotoxicity RPMI 8226; conditions: read-out: Cytotoxicity RPMI 8226 IC50
# MDA-MB-231 cells [4] = test: MTT assay cytotoxicity MDA-MB-231; conditions: read-out: Cytotoxicity MDA-MB-231 IC50
# Method: (§3) The cells were incubated at 37° C. in a humidified atmosphere with 5% CO2.
# (§4) 100 μL of cells were added to each well of a 96 well microtiter plate at a concentration of 4×10^4 cells/mL and incubated overnight to allow proper adhesion. (RPMI 8226 cells were plated at 4×10^5 cells/mL). The cells were treated with the panel of test compounds at a series of concentrations, along with vehicle control DMSO and untreated cells as controls. After 48 h incubation, 20 μL of MTT reagent (3-(4,5-dimethylthiazol-2-yl)-2,5-diphenyltetrazolium bromide) in PBS (5 mg/mL) was added to each well of the plates. The plate was incubated for 2 h at 37° C. For adherent cell lines, the media was removed from each well of the plate and the resulting formazan crystals dissolved in 100 μL of DMSO. For RPMI 8226 cells, 200 ul of DMF/SDS mix (50% DMF. 10% w/v SDS pH<4) was used to solubilize the formazan crystals. Optical density (OD) at 490 nm was measured using a microplate reader. Cells treated with 1 μM phenyl arsine oxide (PAO) served as a positive cell-killing control. Technical replicates of these assays were performed in biological quadruplicate, and the three best values were used for analysis in order to eliminate outliers. Data presented are the average IC50 value calculated from at least 3 technical replicates with the corresponding standard deviation.
# [5] = molecular target: T2, trypsin-like activity of the 26S proteasome (Homo sapiens, UniProt Q99436); test: Proteasome assay, trypsin-like (T-L) activity, SUC-RLR-AMC, Jurkat cell lysate; format: biochemical; conditions: Table 3, P2/P3 analogues; ± S.D.; read-out: Proteasome Inhibition T-L-like IC50
# T2 construct: endogenous in cells; host or cells: Jurkat (ATCC TIB-152, E6-1 clone) cell lysate
# T2 sequence (Q99436 44-277): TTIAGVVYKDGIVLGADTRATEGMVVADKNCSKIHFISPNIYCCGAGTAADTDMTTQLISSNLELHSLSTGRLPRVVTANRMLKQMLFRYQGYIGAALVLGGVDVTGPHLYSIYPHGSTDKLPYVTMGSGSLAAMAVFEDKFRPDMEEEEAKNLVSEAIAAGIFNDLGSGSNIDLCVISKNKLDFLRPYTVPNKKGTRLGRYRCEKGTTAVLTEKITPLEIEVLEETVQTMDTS
# Method: as §1, §2
# RPMI 8226 cells [6] = test system: RPMI 8226 cells
# MDA-MB-231 cells [7] = test system: MDA-MB-231 cells
# Method: as §3, §4
# MCF7 cells [8] = test system: MCF7 cells
compound,measurement,setting,value
"CC[C@H](C)[C@@H]1C(=O)O[C@H]1C(=O)N[C@H](C(=O)N[C@H](C(=O)OCc1ccccc1)C(C)(C)C)C(C)(C)C [Compound 10g, Benzyl(S)-2-((S)-2-((2R,3S)-3-((S)-sec-butyl)-4-oxooxetane-2-carboxamido)-3,3-dimethylbutanamido)-3,3-dimethylbutanoate]",IC50,"MCF7 cells [1]; Homo sapiens, MCF7, 48 h",1690 ± 102 nM
same,IC50,"[2]; Table 3, P2/P3 analogues",21.4 ± 8.8 nM
same,IC50,"RPMI 8226 cells [3]; Homo sapiens, RPMI-8226, 48 h",866 ± 532 nM
same,IC50,"MDA-MB-231 cells [4]; Homo sapiens, MDA-MB-231, 48 h",953 ± 484 nM
same,IC50,[5],4530 ± 2180 nM
"CC[C@H](C)[C@@H]1C(=O)O[C@H]1C(=O)N[C@@H](Cc1ccccc1)C(=O)N[C@H](C(=O)OCc1ccccc1)C(C)C [Compound 10b, Benzyl((2R,3S)-3-((S)-sec-butyl)-4-oxooxetane-2-carbonyl)-L-phenylalanyl-L-valinate]",IC50,"MCF7 cells [1]; Table 3, MTT, 48 h",~5000 nM
same,"subunit selectivity, ChT-L over T-L (in words)",[2],enhanced subunit selectivity
same,IC50,"[2]; Table 3, P2/P3 analogues",7.7 ± 1.7 nM
same,IC50,"RPMI 8226 cells [3]; Table 3, MTT, 48 h",2330 ± 610 nM
same,IC50,"MDA-MB-231 cells [4]; Table 3, MTT, 48 h",3440 ± 722 nM
same,IC50,[5],3820 ± 812 nM
"CC[C@H](C)[C@@H]1C(=O)O[C@H]1C(=O)N[C@H](C(=O)N[C@@H](Cc1ccccc1)C(=O)OCc1ccccc1)C(C)C [Compound 10c, Benzyl((2R,3S)-3-((S)-sec-butyl)-4-oxooxetane-2-carbonyl)-L-valyl-phenylalaninate]",IC50,"MCF7 cells [1]; Table 3, MTT, 48 h",2300 ± 142 nM
same,IC50,"[2]; Table 3, P2/P3 analogues",5.4 ± 2.9 nM
same,IC50,"RPMI 8226 cells [3]; Table 3, MTT, 48 h",1040 ± 45 nM
same,IC50,"MDA-MB-231 cells [4]; Table 3, MTT, 48 h",2570 ± 705 nM
same,IC50,[5],1660 ± 204 nM
"CC[C@H](C)[C@@H]1C(=O)O[C@H]1C(=O)N[C@@H](COCc1ccccc1)C(=O)N[C@H](C(=O)OCc1ccccc1)C(C)C [Compound 10j, BenzylO-benzyl-N-((2R,3S)-3-((S)-sec-butyl)-4-oxooxetane-2-carbonyl)-L-seryl-L-valinate]",IC50,"MCF7 cells [1]; Table 3, MTT, 48 h",2760 ± 791 nM
same,IC50,"[2]; Table 3, P2/P3 analogues",6.9 ± 0.2 nM
same,IC50,"RPMI 8226 cells [3]; Table 3, MTT, 48 h",1430 ± 526 nM
same,IC50,"MDA-MB-231 cells [4]; Table 3, MTT, 48 h",2210 ± 764 nM
same,IC50,[5],792 ± 240 nM
"CC[C@H](C)[C@@H]1C(=O)O[C@H]1C(=O)N[C@H](C(=O)N[C@H](C(=O)OCC1CCCCC1)C(C)C)C(C)C [Compound 11c, Cyclohexylmethyl((2R,3S)-3-((S)-sec-butyl)-4-oxooxetane-2-carbonyl)-L-valyl-L-valinate]",IC50,RPMI 8226 cells [6],461 ± 194 nM
same,IC50,MDA-MB-231 cells [7],1920 ± 917 nM
same,IC50,"[2]; Table 4, P4 analogues",13 ± 5.2 nM
same,IC50,MCF7 cells [8],4570 ± 1650 nM
"CC[C@H](C)[C@@H]1C(=O)O[C@H]1C(=O)N[C@H](C(=O)N[C@H](C(=O)OCC(C)C)C(C)C)C(C)C [Compound 11d, Isobutyl((2R,3S)-3-((S)-sec-butyl)-4-oxooxetane-2-carbonyl)-L-valyl-L-valinate]",IC50,RPMI 8226 cells [6],99 ± 7 nM
same,IC50,MDA-MB-231 cells [7],355 ± 123 nM
same,IC50,"[2]; Table 4, P4 analogues",9.4 ± 3.7 nM
same,IC50,MCF7 cells [8],634 ± 72 nM
"CC[C@H](C)[C@@H]1C(=O)O[C@H]1C(=O)N[C@H](C(=O)N[C@H](C(=O)OCc1ccc(Cl)cc1)C(C)C)C(C)C [Compound 11b, 4-chlorobenzyl((2R,3S)-3-((S)-sec-butyl)-4-oxooxetane-2-carbonyl)-L-valyl-L-valinate]",IC50,RPMI 8226 cells [6],88 ± 12 nM
same,IC50,MDA-MB-231 cells [7],307 ± 166 nM
same,IC50,"[2]; Table 4, P4 analogues",10.2 ± 7 nM
same,IC50,MCF7 cells [8],954 ± 351 nM
"CC[C@H](C)[C@@H]1C(=O)O[C@H]1C(=O)N[C@H](C(=O)N[C@H](C(=O)OCc1ccc(OC)cc1)C(C)C)C(C)C [Compound 11f, 4-methoxybenzyl((2R,3S)-3-((S)-sec-butyl)-4-oxooxetane-2-carbonyl)-L-valyl-L-valinate]",IC50,"MCF7 cells [1]; Table 4, MTT, 48 h",574 ± 96 nM
same,IC50,"[2]; Table 4, P4 analogues",9 ± 4.2 nM
same,IC50,"RPMI 8226 cells [3]; Table 4, MTT, 48 h",117 ± 47 nM
same,IC50,"MDA-MB-231 cells [4]; Table 4, MTT, 48 h",265 ± 114 nM
"CC[C@H](C)[C@@H]1C(=O)O[C@H]1C(=O)N[C@H](C(=O)N[C@H](C(=O)OC)C(C)C)C(C)C [Compound 11h, Methyl ((2R,3S)-3-((S)-sec-butyl)-4-oxooxetane-2-carbonyl)-L-valyl-L-valinate]",IC50,"MCF7 cells [1]; Homo sapiens, MCF7, 48 h",506 ± 207 nM
same,IC50,"[2]; Table 4, P4 analogues",24.3 ± 8.2 nM
same,IC50,"RPMI 8226 cells [3]; Homo sapiens, RPMI-8226, 48 h",293 ± 71 nM
same,IC50,"MDA-MB-231 cells [4]; Homo sapiens, MDA-MB-231, 48 h",316 ± 44 nM
